{"source": "ChEMBL document CHEMBL1201862", "about": "“PubChem BioAssay data set” (2004)", "key": {"[1]": {"biological_target": "T1, Protein skinhead-1 (Caenorhabditis elegans, UniProt P34707)", "T1 sequence (P34707 whole entry)": "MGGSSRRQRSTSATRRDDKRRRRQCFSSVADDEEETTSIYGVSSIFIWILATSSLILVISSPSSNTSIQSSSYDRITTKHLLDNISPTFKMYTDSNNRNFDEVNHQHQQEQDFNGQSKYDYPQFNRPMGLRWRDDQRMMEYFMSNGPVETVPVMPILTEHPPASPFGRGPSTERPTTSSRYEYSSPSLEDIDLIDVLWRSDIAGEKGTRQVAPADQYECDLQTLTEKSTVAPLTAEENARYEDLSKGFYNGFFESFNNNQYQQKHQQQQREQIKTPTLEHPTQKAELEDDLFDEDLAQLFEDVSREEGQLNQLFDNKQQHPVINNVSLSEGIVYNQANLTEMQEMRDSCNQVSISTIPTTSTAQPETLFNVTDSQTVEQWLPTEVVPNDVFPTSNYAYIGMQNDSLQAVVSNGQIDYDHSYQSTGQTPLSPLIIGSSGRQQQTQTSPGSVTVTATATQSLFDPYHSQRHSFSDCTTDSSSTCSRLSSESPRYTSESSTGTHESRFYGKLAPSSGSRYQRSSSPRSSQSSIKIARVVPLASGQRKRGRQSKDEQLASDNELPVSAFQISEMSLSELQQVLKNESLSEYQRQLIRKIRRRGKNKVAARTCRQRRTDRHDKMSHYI", "type": "functional"}, "[2]": {"test": "cells"}, "[3]": {"biological_target": "T2, Oxysterols receptor LXR-beta (Homo sapiens, UniProt P55055)", "T2 sequence (P55055 whole entry)": "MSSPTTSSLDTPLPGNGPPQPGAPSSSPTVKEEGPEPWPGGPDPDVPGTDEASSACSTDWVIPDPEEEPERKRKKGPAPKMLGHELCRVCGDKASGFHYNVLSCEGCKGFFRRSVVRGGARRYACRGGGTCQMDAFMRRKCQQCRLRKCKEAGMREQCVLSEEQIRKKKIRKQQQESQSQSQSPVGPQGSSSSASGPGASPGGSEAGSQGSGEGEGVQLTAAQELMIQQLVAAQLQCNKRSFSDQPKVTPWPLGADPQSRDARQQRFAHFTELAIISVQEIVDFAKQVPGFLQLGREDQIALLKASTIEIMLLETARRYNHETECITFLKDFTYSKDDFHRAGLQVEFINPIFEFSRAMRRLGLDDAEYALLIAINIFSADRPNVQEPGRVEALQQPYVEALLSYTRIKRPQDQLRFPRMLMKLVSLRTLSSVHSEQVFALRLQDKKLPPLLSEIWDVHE", "type": "functional, cell-based"}, "[4]": {"test": "inhibitors of non-replicating M. tuberculosis, dose response, luciferase, dry powder (AID 651620)", "type": "functional", "conditions": "Mycobacterium tuberculosis"}, "[5]": {"test": "inhibitors of non-replicating M. tuberculosis, dose response, luciferase, dry powder (AID 651619)", "type": "functional", "conditions": "Mycobacterium tuberculosis"}, "[6]": {"test": "HepG2 hepatoma cell viability loss – plate reader, dry powder, cytotoxicity control, dose response (AID 651947)", "type": "functional, cell-based"}, "[7]": {"test": "HeLa cell viability loss – plate reader, dry powder, cytotoxicity control, dose response (AID 651946)", "type": "functional, cell-based"}, "[8]": {"test": "P. falciparum Dd2 growth inhibitors, dose response, SYBR Green, cherry-picked samples (AID 1159567)", "type": "functional, cell-based"}, "[9]": {"test": "mouse embryonic fibroblast toxicity – cell-based, plate reader, dry powder, set 2, cytotoxicity control, dose response (AID 652280)", "type": "functional", "conditions": "NIH3T3"}, "[10]": {"test": "T. cruzi growth inhibition in host cells, dose response, cell-based, plate reader, dry powder, set 2 (AID 652275)", "type": "functional"}, "[11]": {"biological_target": "Transthyretin (Homo sapiens, UniProt P02766)", "test": "Luminescence-based cell-based high throughput dose response assay to identify activators of Transthyretin (TTR) transcription.", "type": "functional"}, "[12]": {"test": "Luminescence Cell-Based Dose Response HTS to Identify Activators of Luciferase Translation or Activity in H4 […] Cells. [Related pubchem assays: 1829 (Project Summary), 1814 (Primary HTS)]", "type": "functional"}, "[13]": {"test": "Luminescence Cell-Based Dose Confirmation HTS to Identify Activators of 5'UTR Stem-Loop Driven Alpha-Synuclein mRNA Translation in H4 Neuroglioblastoma Cells. [Related pubchem assays: 1829 (Project Summary), 1814 (Primary HTS)]", "type": "functional"}, "[14]": {"system": "H4", "test": "Luminescence Cell-Based Dose Response HTS to Identify Activators of 5'UTR Stem-Loop Driven Prion Protein mRNA Translation in H4 Neuroglioblastoma Cells. [Related pubchem assays: 1829 (Project Summary), 1814 (Primary HTS)]", "type": "functional", "conditions": "Homo sapiens"}, "[15]": {"biological_target": "Beta-galactosidase (Escherichia coli, UniProt Q8VNN2)", "sequence (Q8VNN2 whole entry)": "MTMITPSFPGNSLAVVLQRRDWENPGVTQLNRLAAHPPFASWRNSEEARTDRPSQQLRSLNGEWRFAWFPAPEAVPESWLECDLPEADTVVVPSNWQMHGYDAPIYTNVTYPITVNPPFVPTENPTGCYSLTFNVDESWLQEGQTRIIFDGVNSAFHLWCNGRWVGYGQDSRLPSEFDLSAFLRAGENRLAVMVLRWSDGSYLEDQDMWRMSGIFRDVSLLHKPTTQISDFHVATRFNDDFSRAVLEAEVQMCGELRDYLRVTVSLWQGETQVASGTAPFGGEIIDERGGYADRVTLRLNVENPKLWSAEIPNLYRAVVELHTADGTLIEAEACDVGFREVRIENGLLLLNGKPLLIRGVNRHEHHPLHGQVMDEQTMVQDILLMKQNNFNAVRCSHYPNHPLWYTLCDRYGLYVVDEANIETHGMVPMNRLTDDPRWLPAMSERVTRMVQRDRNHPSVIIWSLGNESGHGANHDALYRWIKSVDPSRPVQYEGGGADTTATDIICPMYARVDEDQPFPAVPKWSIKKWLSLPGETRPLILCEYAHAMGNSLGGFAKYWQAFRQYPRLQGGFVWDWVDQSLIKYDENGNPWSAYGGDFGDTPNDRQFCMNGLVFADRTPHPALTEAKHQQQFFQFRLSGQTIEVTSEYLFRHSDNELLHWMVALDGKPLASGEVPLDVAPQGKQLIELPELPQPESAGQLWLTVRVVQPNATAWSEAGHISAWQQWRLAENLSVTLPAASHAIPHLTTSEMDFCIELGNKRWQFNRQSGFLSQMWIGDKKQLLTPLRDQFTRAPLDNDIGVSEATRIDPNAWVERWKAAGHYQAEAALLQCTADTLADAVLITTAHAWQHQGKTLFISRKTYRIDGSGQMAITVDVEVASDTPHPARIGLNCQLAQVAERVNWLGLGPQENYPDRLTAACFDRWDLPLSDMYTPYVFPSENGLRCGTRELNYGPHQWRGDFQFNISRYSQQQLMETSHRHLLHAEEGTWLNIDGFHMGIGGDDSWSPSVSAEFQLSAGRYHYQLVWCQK", "test": "Dose response counterscreen for EBI2 assay utilizing the enzyme, b-galactosidase.", "type": "functional"}, "[16]": {"test": "COV362 cell viability loss – plate reader, dry powder, SA12, cytotoxicity control for PAX8 inhibitor project, dose response (AID 743144)", "type": "functional, cell-based"}, "[17]": {"test": "OVCAR4 cell viability loss – plate reader, dry powder, SA11, cytotoxicity control for PAX8 inhibitor project, dose response (AID 743150)", "type": "functional, cell-based", "conditions": "OVCAR-4"}, "[18]": {"biological_target": "Paired box protein Pax-8 (Homo sapiens, UniProt Q06710)", "sequence (Q06710 whole entry)": "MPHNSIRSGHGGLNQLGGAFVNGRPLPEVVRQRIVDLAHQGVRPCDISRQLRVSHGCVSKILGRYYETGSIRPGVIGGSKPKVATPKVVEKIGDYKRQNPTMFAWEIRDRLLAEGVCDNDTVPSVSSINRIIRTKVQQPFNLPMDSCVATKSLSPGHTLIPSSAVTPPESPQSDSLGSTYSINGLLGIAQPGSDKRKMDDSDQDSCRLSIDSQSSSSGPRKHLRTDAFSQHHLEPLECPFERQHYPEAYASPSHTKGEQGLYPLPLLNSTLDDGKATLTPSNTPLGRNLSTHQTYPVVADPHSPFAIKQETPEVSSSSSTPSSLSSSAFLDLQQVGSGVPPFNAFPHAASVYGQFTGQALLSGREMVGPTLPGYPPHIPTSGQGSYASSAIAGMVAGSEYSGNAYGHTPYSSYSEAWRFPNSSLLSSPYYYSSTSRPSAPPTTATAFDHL", "test": "PAX8 transcriptional activity inhibition in RMG-I – RMG-I cells, luciferase, cherry-pick, dose response (AID 687027);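 also: luciferase reporter driven by Pax8 target thyroperoxidase promoter measured by SteadyGlo luminescence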", "type": "functional, cell-based"}, "[19]": {"test": "OV-90 cell viability loss – plate reader, dry powder, SA8, PAX8 inhibitor project, dose response (AID 743149)", "type": "functional, cell-based"}, "[20]": {"test": "IGROV1 cell killing – plate reader, dry powder samples, PAX8 inhibitor project, dose response (AID 743043)", "type": "functional, cell-based", "conditions": "IGROV-1"}, "[21]": {"test": "OVCAR-3 cell viability loss – plate reader, dry powder samples, PAX8 inhibitor project, dose response (AID 743044)", "type": "functional, cell-based"}, "[22]": {"test": "PAX5 cellular inhibition readout – cell-based, plate reader, dry powder samples, selectivity assay for PAX8 inhibitor project, dose response (AID 743047);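 also: HEK293 cells carrying a Pax5 driven CD19 promoter luciferase reporter; potency of inhibitors that lower reporter luminescence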", "type": "functional"}, "[23]": {"test": "inhibitors acting on PAX2 in cells – cell-based, plate reader, dry powder samples, selectivity assay for PAX8 inhibitor project, dose response (AID 743048);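 also: HEK293 cells carrying a WT1 promoter luciferase reporter driven by expressed Pax2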", "type": "functional"}, "[24]": {"test": "PAX8-dependent cell viability loss – plate reader, dry powder, dose response (AID 743049)", "type": "functional, cell-based"}, "[25]": {"test": "COV434 cell viability loss – plate reader, dry powder, SA7, cytotoxicity control for PAX8 inhibitor project, dose response (AID 743145)", "type": "functional, cell-based"}, "[26]": {"test": "Late stage results for the probe development effort to identify inhibitors of Plasmodium falciparum gametocytes: Luminescence-based cell-based high throughput dose response assay to identify inhibitors of viability of late stage Plasmodium falciparum gametocytes.", "type": "functional"}, "[27]": {"biological_target": "Endoplasmic reticulum aminopeptidase 1 (Homo sapiens, UniProt Q9NZ08)", "sequence (Q9NZ08 whole entry)": "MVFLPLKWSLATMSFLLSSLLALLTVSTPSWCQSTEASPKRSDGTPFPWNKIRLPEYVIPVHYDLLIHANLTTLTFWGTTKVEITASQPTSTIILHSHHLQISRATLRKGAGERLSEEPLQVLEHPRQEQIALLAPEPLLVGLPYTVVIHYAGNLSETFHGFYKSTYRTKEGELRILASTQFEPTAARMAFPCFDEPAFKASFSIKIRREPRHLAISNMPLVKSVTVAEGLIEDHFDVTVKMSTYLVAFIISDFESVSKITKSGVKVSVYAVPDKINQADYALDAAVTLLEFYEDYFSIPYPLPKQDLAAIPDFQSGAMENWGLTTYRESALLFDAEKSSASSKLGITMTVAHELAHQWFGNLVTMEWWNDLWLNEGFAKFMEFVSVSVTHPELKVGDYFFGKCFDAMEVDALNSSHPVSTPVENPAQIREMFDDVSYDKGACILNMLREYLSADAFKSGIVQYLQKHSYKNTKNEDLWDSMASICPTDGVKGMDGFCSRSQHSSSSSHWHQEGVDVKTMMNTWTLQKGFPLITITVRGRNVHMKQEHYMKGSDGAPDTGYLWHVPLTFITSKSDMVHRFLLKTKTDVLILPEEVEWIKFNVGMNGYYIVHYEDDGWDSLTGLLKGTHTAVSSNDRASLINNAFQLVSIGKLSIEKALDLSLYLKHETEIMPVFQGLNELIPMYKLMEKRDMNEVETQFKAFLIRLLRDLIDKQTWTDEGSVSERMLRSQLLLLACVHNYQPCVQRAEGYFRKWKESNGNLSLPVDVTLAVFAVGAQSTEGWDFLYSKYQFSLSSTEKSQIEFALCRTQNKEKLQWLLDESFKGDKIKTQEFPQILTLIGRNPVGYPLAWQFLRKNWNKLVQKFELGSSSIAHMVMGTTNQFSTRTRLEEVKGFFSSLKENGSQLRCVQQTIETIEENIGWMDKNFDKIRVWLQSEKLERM", "test": "inhibition of human ERAP1 enzyme activity – biochemical, cherry-pick, set 2, plate reader, dose response (AID 743314)"}, "[28]": {"test": "EF1alpha-driven Renilla reporter with control 3'UTR suppression – Clone20-Shn3RL cells, dual-Glo, cherry-pick, set 2, counter-screen for Shn3 3'UTR targeting project, dose response (AID 720724)", "type": "functional, cell-based", "conditions": "Dual-Go Shn3RL"}, "[29]": {"test": "Shn3 3'UTR reporter signal decrease – cell-based, Clone20 osteoblasts, firefly luciferase, cherry-pick, set 2, Schnurri-3 inhibitor project, dose response (AID 720490);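 also: actives lower the luminescence signal as inhibitors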", "type": "functional"}, "[30]": {"test": "loss of viability in HepG2 cells – cell-based, CellTiter-Glo, cherry-picked, cytotoxicity control for Shn3 inhibitor project, dose response (AID 624134)", "type": "functional"}, "[31]": {"test": "reduction of Shn3 3'UTR-driven luciferase in osteoblasts – cell-based, Clone20 osteoblasts, firefly luciferase, cherry-picked, dose response (AID 624132)", "type": "functional"}, "[32]": {"test": "non-specific 3'UTR reporter inhibition in Clone20-Shn3RL – cell-based, Renilla luciferase, cherry-picked, counter-screen for Shn3 inhibitor project, dose response (AID 624133)", "type": "functional"}, "[33]": {"test": "embryonic kidney cell viability loss – CellTiter-Glo luminescence, dry powder, set 20, cytotoxicity control, dose response (AID 1117293)", "type": "functional, cell-based", "conditions": "HEK293"}}, "note": "Activity calls are given as the source filed them.", "data": [{"smiles": "CNc1ccc(C=C2C=Cc3ccccc32)cc1", "values": [{"measurement": "IC50", "setting": "[1]", "value": "20.5 µM (active)"}, {"measurement": "EC50", "setting": "[2]", "value": "> 67.6 µM (inactive)"}, {"measurement": "EC50", "setting": "[3]", "value": "> 67.6 µM (inactive)"}]}, {"smiles": "c1ccc(Sc2nnc(-c3ccccc3)o2)cc1", "values": [{"measurement": "IC90", "setting": "[4]", "value": "1 µM (active)"}, {"measurement": "IC90", "setting": "[5]", "value": "1 µM (active)"}, {"measurement": "AC50", "setting": "[6]", "value": "42.9 µM (active)"}, {"measurement": "AC50", "setting": "[7]", "value": "> 52 µM (inactive)"}]}, {"smiles": "CN(C)CC#Cc1cccc(-c2nc(C(=O)N[C@@H]3CCN(Cc4ccccc4)C3)cc3c2[C@H](CCO)N([S+]([O-])C(C)(C)C)C3)c1", "note": "(stereo partly drawn)", "values": [{"measurement": "AC50", "setting": "[8]", "value": "2.71 µM (active)"}, {"measurement": "AC50", "setting": "[9]", "value": "5.14 µM (active)"}, {"measurement": "AC50", "setting": "[10]", "value": "0.58 µM (active)"}]}, {"smiles": "Cc1c(Br)c(C(=O)N2CCc3ccccc32)nn1C", "values": [{"measurement": "EC50", "setting": "[11]", "value": "> 167 µM (inactive)"}, {"measurement": "EC50", "setting": "[12]", "value": "6.16 µM (active)"}, {"measurement": "EC50", "setting": "[13]", "value": "11.7 µM (active)"}, {"measurement": "EC50", "setting": "[14]", "value": "99.2 µM (active)"}]}, {"smiles": "CCOC(=O)c1ccc(S(=O)(=O)N2CCN(C(=O)c3cc4ccccc4o3)CC2)cc1", "values": [{"measurement": "IC50", "setting": "[15]", "value": "> 80 µM (inactive)"}]}, {"smiles": "COc1ccc(S(=O)(=O)Nc2ccc3c(c2)C(=O)N([C@@H](C)CO)C[C@H](C)[C@H](CN(C)Cc2ccc(C(F)(F)F)cc2)OCCCC[C@H](C)O3)cc1", "values": [{"measurement": "AC50", "setting": "[16]", "value": "38.3 µM (active)"}, {"measurement": "AC50", "setting": "[17]", "value": "33.6 µM (active)"}, {"measurement": "AC50", "setting": "[18]", "value": "5.59 µM (active)"}, {"measurement": "AC50", "setting": "[19]", "value": "21.9 µM (active)"}, {"measurement": "AC50", "setting": "[20]", "value": "34.5 µM (active)"}, {"measurement": "AC50", "setting": "[21]", "value": "17.1 µM (active)"}, {"measurement": "AC50", "setting": "[22]", "value": "19.6 µM (active)"}, {"measurement": "AC50", "setting": "[23]", "value": "15.5 µM (active)"}, {"measurement": "AC50", "setting": "[24]", "value": "24.2 µM (active)"}, {"measurement": "AC50", "setting": "[25]", "value": "26.5 µM (active)"}]}, {"smiles": "O=C(Nc1nccs1)c1cc(-c2ccccc2)nn1-c1ccccc1", "values": [{"measurement": "IC50", "setting": "[26]", "value": "> 37.2 µM (inactive)"}]}, {"smiles": "CCCNC(=O)[C@H]1[C@H](CO)[C@H]2Cn3c(ccc(/C=C/c4ccccc4)c3=O)[C@H]2N1CCC", "values": [{"measurement": "AC50", "setting": "[27]", "value": "14.8 µM (active)"}]}, {"smiles": "CCOc1cc(CNCCc2ccc(S(N)(=O)=O)cc2)ccc1OCc1ccccc1", "values": [{"measurement": "AC50", "setting": "[28]", "value": "31.9 µM (active)"}, {"measurement": "AC50", "setting": "[29]", "value": "3.56 µM (active)"}, {"measurement": "AC50", "setting": "[30]", "value": "> 70 µM (inactive)"}, {"measurement": "AC50", "setting": "[31]", "value": "2.44 µM (active)"}, {"measurement": "AC50", "setting": "[32]", "value": "25.5 µM (active)"}]}, {"smiles": "O=S(=O)(Nc1cc(C(F)(F)F)ccc1N1CCCCC1)c1ccc(-c2ccccc2)cc1", "values": [{"measurement": "AC50", "setting": "[33]", "value": "0.852 µM (active)"}]}]}
